PubChem BioAssay AID588548 (Broad Institute, 2011)

The molecules below were run against Scavenger receptor class B member 1 (Mus musculus) (UniProt Q61009) (assay: inhibition of HDL lipid transfer via mSR-BI – ldlA[mSR-BI] CHO cells, powder samples, set 4, dose response (AID 588548)). Settings: DiI-HDL uptake fluorescence, 3 h.
Chain of Scavenger receptor class B member 1 (Mus musculus) (Q61009 whole entry, looked up): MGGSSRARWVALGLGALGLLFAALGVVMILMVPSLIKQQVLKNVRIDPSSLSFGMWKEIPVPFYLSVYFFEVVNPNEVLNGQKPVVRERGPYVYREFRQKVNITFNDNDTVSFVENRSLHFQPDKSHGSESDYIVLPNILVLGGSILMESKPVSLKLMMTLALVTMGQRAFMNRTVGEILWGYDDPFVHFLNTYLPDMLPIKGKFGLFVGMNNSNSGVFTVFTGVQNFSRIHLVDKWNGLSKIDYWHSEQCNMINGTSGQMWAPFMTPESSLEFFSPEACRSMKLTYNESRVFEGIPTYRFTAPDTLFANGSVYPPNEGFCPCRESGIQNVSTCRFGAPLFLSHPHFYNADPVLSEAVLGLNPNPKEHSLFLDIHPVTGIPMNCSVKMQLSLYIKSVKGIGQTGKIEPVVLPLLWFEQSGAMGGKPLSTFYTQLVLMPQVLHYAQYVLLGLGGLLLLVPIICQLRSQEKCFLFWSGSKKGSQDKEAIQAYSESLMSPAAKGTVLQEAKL

AC50 [nM]	Compound
< 15	COc1cc(OC)cc(C(=O)Nc2nc(-c3ccc4c(c3)CCN4C(=O)CN(C)C)cs2)c1
28.6	CCC(=O)N1CCc2cc(-c3csc(NC(=O)c4ccco4)n3)ccc21
45.3	CCC(=O)N1CCc2cc(-c3csc(NC(=O)c4cc5cccnc5o4)n3)ccc21
29.5	CCC(=O)N1CCc2cc(-c3csc(NC(=O)c4cc(OC)cc(OC)c4)n3)ccc21
50.5	COc1cc(OC)cc(C(=O)Nc2nc(-c3ccc4[nH]ccc4c3)cs2)c1
< 15	O=C(Nc1nc(-c2ccc3c(c2)CCN3)cs1)c1ccco1
51.7	CCCN1CCc2cc(-c3csc(NC(=O)c4cc(OC)cc(OC)c4)n3)ccc21
8840	CCC(=O)Nc1ccc(-c2csc(N)n2)cc1
18.5	CCC(=O)N1CCc2cc(-c3csc(NC(=O)c4cccc(OC(F)(F)F)c4)n3)ccc21
< 15	COc1cc(OC)cc(C(=O)Nc2nc(-c3ccc4c(c3)CCN4C(=O)OC(C)(C)C)cs2)c1
24.9	COc1cc(OC)cc(C(=O)Nc2nc(-c3ccc4c(c3)CCN4C(C)=O)cs2)c1
72	COC(=O)N1CCc2cc(-c3csc(NC(=O)c4cc(OC)cc(OC)c4)n3)ccc21
50	CCC(=O)N1CCc2cc(-c3csc(N(C)C(=O)c4cc(OC)cc(OC)c4)n3)ccc21
< 15	CCC(=O)N1CCc2cc(-c3csc(NC(=O)c4cc(OC)c(OC)c(OC)c4)n3)ccc21
99.3	CCC(=O)Nc1ccc(-c2csc(NC(=O)c3cccc(OC)c3)n2)cc1
< 15	CCNC(=O)N1CCc2cc(-c3csc(NC(=O)c4cc(OC)cc(OC)c4)n3)ccc21
1920	CCC(=O)Nc1ccc(-c2csc(NC(=O)c3ccco3)n2)cc1
103	COc1cc(OC)cc(C(=O)Nc2nc(-c3ccc4c(c3)CCN4)cs2)c1
< 15	COCC(=O)N1CCc2cc(-c3csc(NC(=O)c4cc(OC)cc(OC)c4)n3)ccc21

Second part, the molecule before the results:

Compound	AC50 [nM]
O=C(CN(C(=O)Cn1nnc(-c2ccc3c(c2)OCO3)n1)C1CCCCC1)NC1CCCC1	< 15
O=C(CN(C(=O)Cn1nnc(-c2ccc3c(c2)OC(F)(F)O3)n1)C1CCCCC1)NC1CCCC1	26
CC(C(=O)NC1CCCC1)N(C(=O)Cn1nnc(-c2ccc3c(c2)OCO3)n1)C1CCCCC1 (configuration not stated)	< 15
CCC(=O)N1CCc2cc(-c3csc(/N=C(/OC)c4cc(OC)cc(OC)c4)n3)ccc21	1020
CCCCCCC1CCC/C1=N\NC(N)=S (configuration not stated)	< 15
COc1ccc(-c2nnn(CC(=O)N(CC(=O)NC3CCCC3)C3CCCCC3)n2)cc1OC	< 15
CC(C(=O)NC1CCCC1)N(C(=O)Cn1nnc(-c2ccc3c(c2)OC(F)(F)O3)n1)C1CCCCC1 (configuration not stated)	63.5
CC(C)(C)OC(=O)N1CCc2cc(-c3noc(NC(=O)c4ccco4)n3)ccc21	14600
CC(C(=O)NC1CCCC1)N(C(=O)Cn1nnc(-c2ccc(Cl)c(Cl)c2)n1)C1CCCCC1 (configuration not stated)	250
COc1ccc(-c2nc(CC(=O)N(C3CCCCC3)C(C)C(=O)NC3CCCC3)cs2)cc1OC (configuration not stated)	5260
CC(C(=O)NC1CCCC1)N(C(=O)Cn1nnc(-c2ccc3c(c2)OCO3)n1)C1CCOCC1 (configuration not stated)	3180
O=C(CN(C(=O)Cn1nnc(-c2ccc(Cl)c(Cl)c2)n1)C1CCCCC1)NC1CCCC1	302
COc1ccc(-c2cc(CC(=O)N(C3CCCCC3)C(C)C(=O)NC3CCCC3)no2)cc1OC (configuration not stated)	28.5
